Laboratory results as given in ChEMBL document CHEMBL3044851, “Immunomodulatory active steroidal saponins from Asparagus racemosus” (Med Chem Res, 2013).
The source made the active and inactive calls. The calls are words filed in the database; no cut-off is given here.

What was measured:
PMN [1] = experiment: Immunomodulatory activity in Homo sapiens (human) PMN cells assessed as increase in reactive oxygen species formation at 1 uM at 40 min after luminal addition by chemiluminescence assay; assay type: functional, cell-based
PMN [2] = experiment: Immunomodulatory activity in Homo sapiens (human) PMN cells assessed as increase in NO release at 1 uM after 1 hr by ELISA plate reader analysis; assay type: functional, cell-based
PMN [3] = experiment: Immunomodulatory activity in Homo sapiens (human) PMN cells assessed as increase in reactive oxygen species formation at 1 uM at 0 min after luminal addition by chemiluminescence assay; assay type: functional, cell-based
PMN [4] = experiment: Immunomodulatory activity in Homo sapiens (human) PMN cells assessed as increase in superoxide species generation at 1 uM after 2 hr by NBT assay; assay type: functional, cell-based
PMN [5] = experiment: Immunomodulatory activity in Homo sapiens (human) PMN cells assessed as increase in reactive oxygen species formation at 0 min after luminal addition by chemiluminescence assay; assay type: functional, cell-based
[6] = Cytotoxicity against Homo sapiens (human) PMN cells assessed as cell viability at 0.01 ug/ml by trypan blue dye exclusion test (reference value: 83.94 +/-5.05%); assay type: cell-based; conditions: read-out: Activity
[7] = Cytotoxicity against Homo sapiens (human) PMN cells assessed as cell viability at 0.005 ug/ml by trypan blue dye exclusion test (reference value: 83.94 +/-5.05%); assay type: cell-based; conditions: read-out: Activity
[8] = Cytotoxicity against Homo sapiens (human) PMN cells assessed as cell viability at 0.001 ug/ml by trypan blue dye exclusion test (reference value: 83.94 +/-5.05%); assay type: cell-based; conditions: read-out: Activity
[9] = Immunomodulatory activity in Homo sapiens (human) PMN cells assessed as induction of phagocytosis using Candida albicans as an infectious organism at 0.001 ug/ml after 1 hr by Giemsa staining based microscopic analysis (reference value: 27.33 +/-2.52%); assay type: functional
[10] = Cytotoxicity against Homo sapiens (human) PMN cells assessed as cell viability at 0.5 ug/ml by trypan blue dye exclusion test (reference value: 83.94 +/-5.05%); assay type: cell-based; conditions: read-out: Activity
PMN [11] = experiment: Immunomodulatory activity in Homo sapiens (human) PMN cells assessed as increase in superoxide species generation at 0.001 to 0.0075 ug/ml after 2 hr by NBT assay; assay type: functional, cell-based
PMN [12] = experiment: Immunomodulatory activity in Homo sapiens (human) PMN cells assessed as increase in NO release at 0.001 to 0.0075 ug/ml after 1 hr by ELISA plate reader analysis; assay type: functional, cell-based
[13] = Cytotoxicity against Homo sapiens (human) PMN cells assessed as cell viability at 0.1 ug/ml by trypan blue dye exclusion test (reference value: 83.94 +/-5.05%); assay type: cell-based; conditions: read-out: Activity
[14] = Immunomodulatory activity in Homo sapiens (human) PMN cells assessed as induction of phagocytosis using Candida albicans as an infectious organism at 0.0075 ug/ml after 1 hr by Giemsa staining based microscopic analysis (reference value: 27.33 +/-2.52%); assay type: functional
PMN [15] = experiment: Immunomodulatory activity in Homo sapiens (human) PMN cells assessed as increase in phagocytic index using Candida albicans as an infectious organism after 1 hr by Giemsa staining based microscopic analysis; assay type: functional, cell-based
PMN [16] = experiment: Immunomodulatory activity in Homo sapiens (human) PMN cells assessed as increase in reactive oxygen species formation at 0.001 to 0.0075 ug/ml at 40 min after luminal addition by chemiluminescence assay; assay type: functional, cell-based
[17] = Immunomodulatory activity in Homo sapiens (human) PMN cells assessed as induction of phagocytosis using Candida albicans as an infectious organism at 0.005 ug/ml after 1 hr by Giemsa staining based microscopic analysis (reference value: 27.33 +/-2.52%); assay type: functional
[18] = Immunomodulatory activity in Homo sapiens (human) PMN cells assessed as induction of phagocytosis using Candida albicans as an infectious organism at 1 uM after 1 hr by Giemsa staining based microscopic analysis (reference value: 27.33 +/-2.52%); assay type: functional
[19] = Cytotoxicity against Homo sapiens (human) PMN cells assessed as cell viability at 0.0075 ug/ml by trypan blue dye exclusion test (reference value: 83.94 +/-5.05%); assay type: cell-based; conditions: read-out: Activity
[20] = Cytotoxicity against Homo sapiens (human) PMN cells assessed as cell viability at 1 ug/ml by trypan blue dye exclusion test (reference value: 83.94 +/-5.05%); assay type: cell-based; conditions: read-out: Activity
PMN [21] = experiment: Immunomodulatory activity in Homo sapiens (human) PMN cells assessed as increase in reactive oxygen species formation at 0.001 ug/ml at 40 min after luminal addition by chemiluminescence assay; assay type: functional, cell-based
PMN [22] = experiment: Immunomodulatory activity in Homo sapiens (human) PMN cells assessed as increase in reactive oxygen species formation at 0.001 ug/ml at 0 min after luminal addition by chemiluminescence assay; assay type: functional, cell-based
PMN [23] = experiment: Immunomodulatory activity in Homo sapiens (human) PMN cells assessed as increase in phagocytic index using Candida albicans as an infectious organism at 0.005 ug/ml after 1 hr by Giemsa staining based microscopic analysis; assay type: functional, cell-based

Row | SMILES | viability at 0.005 ug/ml [7] | viability at 0.001 ug/ml [8] | Activity [9] | Activity (PMN [11]) | Activity (PMN [12]) | Activity [14] | Activity [17] | Activity [18] | viability at 0.0075 ug/ml [19] | other results
1 | CCCCCCCCCCCCCC(=O)O[C@@H]1[C@@H](C)[C@@]2(O)[C@@H](C=C(CO)C[C@]3(O)C(=O)C(C)=C[C@@H]23)[C@@H]2C(C)(C)[C@]12OC(C)=O |  |  |  |  |  |  |  |  |  | Activity (PMN [1]): Active; Activity (PMN [2]): Active; Activity (PMN [3]): Active; Activity (PMN [4]): Active
2 | C[C@H]1CC[C@@]2(OC1)O[C@H]1C[C@H]3[C@@H]4CC[C@@H]5C[C@@H](O[C@@H]6O[C@H](CO[C@@H]7O[C@@H](C)[C@H](O)[C@@H](O)[C@H]7O)[C@@H](O)[C@H](O)[C@H]6O[C@@H]6OC[C@H](O)[C@H](O)[C@H]6O)CC[C@]5(C)[C@H]4CC[C@]3(C)[C@H]1[C@@H]2C [SHATAVAROSIDE A] | 100% | 100% | 32% | Active | Active | 23.5% | 29.33% | 35% | 100% | Activity (PMN [5]): Dose-dependent effect; viability at 0.01 ug/ml [6]: 72.3%; viability at 0.5 ug/ml [10]: 71.2%; viability at 0.1 ug/ml [13]: 71.7%; Activity (PMN [15]): Dose-dependent effect; Activity (PMN [16]): Active; viability at 1 ug/ml [20]: 76.2%
3 | C[C@H]1CC[C@@]2(OC1)O[C@H]1C[C@H]3[C@@H]4CC[C@@H]5C[C@@H](O[C@@H]6O[C@H](CO[C@@H]7O[C@@H](C)[C@H](O)[C@@H](O)[C@H]7O)[C@@H](O[C@@H]7OC[C@@H](O)[C@H](O)[C@H]7O)[C@H](O)[C@H]6O[C@@H]6O[C@H](CO)[C@@H](O)[C@H](O)[C@H]6O)CC[C@]5(C)[C@H]4CC[C@]3(C)[C@H]1[C@@H]2C [SHATAVAROSIDE B] | 92.8% | 94.2% | 36.83% | Active | Active | 26.33% | 28.17% | 35% | 91% | Activity (PMN [21]): Active; Activity (PMN [22]): Active; Activity (PMN [23]): Active
